Laboratory results taken from patent publication US11066400B2, “Compounds for the treatment of cancer” (Hoffmann-La Roche Inc., priority 2015, dated 2021).

Tests used:
[1] = test system: FoxM1_ΔVIIa / FoxM1_FL mRNA (FoxM1 gene splicing); assay: Monitoring expression levels of FoxM1 splice variants using real-time quantitative PCR; format: cell-based; conditions: Fibroblast; human fibroblasts, 24 hours, RT-qPCR, Hill fit of concentration dependence curves
Description: Human fibroblasts were plated at 10,000 cells/well in 200 μl DMEM with GlutaMAX and 10% FBS in 96-well plates in a cell culture incubator (37° C., 5% CO2, 100% relative humidity). Cells were then treated with compounds at different concentrations (0.1-300 nM, each in 0.5% DMSO) in triplicate for 24 hours. RNA extraction was performed as per instructions mentioned in the Ambion® Cells-to-CT™ Kits from Applied Biosystems®. RNA samples were frozen at −20° C. until further analysis. Relative expression levels of full-length FoxM1 (FoxM1_FL) or FoxM1 lacking exon VIIa (FoxM1_ΔVIIa) with GAPDH for internal control, was measured using one-step multiplex reverse transcription-polymerase chain reaction (RT-PCR). TaqMan® FAM probes were used for relative quantitation of FoxM1_FL or FoxM1_ΔVIIa expression levels and TaqMan® VIC probes were used for relative quantitation of human GAPDH levels. The fidelity of the amplification methods was determined using the ΔΔCt relative quantification method for quantitative PCR.
To investigate an effect on splicing of FoxM1, human fibroblasts were treated for 24 hours with compounds of the present invention in dose response, and analysed by RT-qPCR for presence of mRNA including (FoxM1_FL) or excluding the exon VIIa (FoxM1_ΔVIIa). […] Correspondingly, the mRNAs for FoxM1_ΔVIIa declined. […] The resulting concentration dependence curves of the FoxM1_ΔVIIa splice variant were fitted to a Hill binding equation to yield IC50 values that are described in Table 1. […] Taken together, the data underline a splicing modifying activity in the FoxM1 gene.

SMN protein = conditions: taken from Activity Tables of WO 2014/028459, WO 2014/116845, WO 2015/017589; cited from earlier work

Structure (SMILES) | IC50 [1] | EC50 (SMN protein)
CN(c1ccc(-c2ccc(C#N)cc2O)nn1)C1CC(C)(C)NC(C)(C)C1 [Compound 1, 3-hydroxy-4-(6-(methyl(2,2,6,6-tetramethylpiperidin-4-yl)amino)pyridazin-3-yl)benzonitrile] | 41 nM | 
CN(c1ccc(-c2ccc(-c3cn[nH]c3)cc2O)nn1)C1CC(C)(C)NC(C)(C)C1 [Compound 2, 5-(1H-pyrazol-4-yl)-2-(6-(methyl(2,2,6,6-tetramethylpiperidin-4-yl)amino)pyridazin-3-yl)phenol] | 0.9 nM | 
CN(c1ccc(-c2ccc(-c3cnn(C)c3)cc2O)nn1)C1CC(C)(C)NC(C)(C)C1 [Compound 3, 2-(6-(methyl-(2,2,6,6-tetramethylpiperidin-4-yl)amino)pyridazin-3-yl)-5-(1-methyl-1H-pyrazol-4-yl)phenol] | 9.8 nM | 
CC1(C)CC(Oc2ccc(-c3ccc(-c4cn[nH]c4)cc3O)nn2)CC(C)(C)N1 [Compound 4] | 17 nM | 
CC1(C)CC(Oc2ccc(-c3ccc(-n4cccn4)cc3O)nn2)CC(C)(C)N1 [Compound 5] | 278 nM | 
CN(c1ccc(-c2ccc(-c3ccc(=O)n(C)c3)cc2O)nn1)C1CC(C)(C)NC(C)(C)C1 [Compound 7, 5-(3-hydroxy-4-(6-(methyl-(2,2,6,6-tetramethylpiperidin-4-yl)amino)pyridazin-3-yl)phenyl)-1-methylpyridin-2(1H)-one] | 167 nM | 
CN(c1ccc(-c2cc3ccccc3cc2O)nn1)C1CC(C)(C)NC(C)(C)C1 [Compound 8, 3-(6-(methyl(2,2,6,6-tetramethylpiperidin-4-yl)amino)pyridazin-3-yl)naphthalen-2-ol] | 3.7 nM | 
CN(c1ccc(-c2cc3ccc(O)cc3cc2O)nn1)C1CC(C)(C)NC(C)(C)C1 [Compound 9, 3-(6-(methyl-(2,2,6,6-tetramethylpiperidin-4-yl)amino)pyridazin-3-yl)naphthalene-2,7-diol] | 0.7 nM | 
COc1ccc2cc(-c3ccc(N(C)C4CC(C)(C)NC(C)(C)C4)nn3)c(O)cc2c1 [Compound 11, 7-methoxy-3-(6-(methyl(2,2,6,6-tetramethylpiperidin-4-yl)amino)pyridazin-3-yl)naphthalen-2-ol] | 0.8 nM | 
CN(c1nnc(-c2ccc(-c3cn[nH]c3)cc2Cl)s1)C1CC(C)(C)NC(C)(C)C1 [Compound 12, 5-(2-Chloro-4-(1H-pyrazol-4-yl)phenyl)-N-methyl-N-(2,2,6,6-tetramethylpiperidin-4-yl)-1,3,4-thiadiazol-2-amine] | 265 nM | 34 nM
CN(c1nnc(-c2ccc(-c3ccn(C)c(=O)c3)cc2Cl)s1)C1CC(C)(C)NC(C)(C)C1 [Compound 13, 4-(3-chloro-4-(5-(methyl(2,2,6,6-tetramethylpiperidin-4-yl)amino)-1,3,4-thiadiazol-2-yl)phenyl)-1-methylpyridin-2(1H)-one] | 345 nM | 50 nM
CN(c1nnc(-c2cc(F)c(-c3ccn[nH]3)cc2F)s1)C1CC(C)(C)NC(C)(C)C1 [Compound 14, 5-(2,5-difluoro-4-(1H-pyrazol-5-yl)phenyl)-N-methyl-N-(2,2,6,6-tetramethylpiperidin-4-yl)-1,3,4-thiadiazol-2-amine] | 144 nM | 85 nM
